# In patent publication US8637505B2, “Cyclic inhibitors of 11beta-hydroxysteroid dehydrogenase 1” (Boehringer Ingelheim International GmbH, priority 2009, dated 2014):
# Biological target: T1, 11β-HSD1 (Homo sapiens, UniProt P28845)
# T1 construct: detecting cortisol generated from cortisterone by human liver microsomes; from tissue; host or cells: human liver microsomes
# Assay: In vitro inhibition of 11β-HSD1, HTRF detection of cortisol generated by human liver microsomes
# Type: biochemical
# Conditions: at 100 nM; 100% indicates no inhibition, zero or below zero indicates complete inhibition; Biological Test Example B
# Description: The ratio of the two emission signals is then calculated (Em665*10000/Em615).
# T1 sequence (P28845 whole entry): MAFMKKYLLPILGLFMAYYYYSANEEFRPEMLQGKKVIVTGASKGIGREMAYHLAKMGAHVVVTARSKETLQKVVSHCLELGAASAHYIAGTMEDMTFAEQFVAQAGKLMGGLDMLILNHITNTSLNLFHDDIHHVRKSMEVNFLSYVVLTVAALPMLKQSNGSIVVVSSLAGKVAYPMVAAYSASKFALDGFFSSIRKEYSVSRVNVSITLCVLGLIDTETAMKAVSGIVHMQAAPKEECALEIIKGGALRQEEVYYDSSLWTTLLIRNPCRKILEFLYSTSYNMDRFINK
row,Compound,Average % control inhibition at 100 nM [%]
1,"(S)-6-(2-Hydroxy-2-methyl-propyl)-6-phenyl-3-{(S)-1-[4′-(alkoxy)-biphenyl-4-yl]-ethyl}-[1,3]oxazinan-2-one [Example B1]",0

# Same assay, conditions: at 100 nM; 100% indicates no inhibition, zero or below zero indicates complete inhibition; Biological Test Example B; read-out: Average % control inhibition at 100 nM
row,remaining activity at 0.1 µM [%],Compound
1,18,"COC(=O)COc1ccc(-c2ccc([C@H](C)N3CC[C@](CC(C)(C)O)(c4ccccc4)OC3=O)cc2)cc1 [Example B2, (4′-{(S)-1-[(S)-6-(2-Hydroxy-2-methyl-propyl)-2-oxo-6-phenyl-[1,3]oxazinan-3-yl]-ethyl}-biphenyl-4-yloxy)-acetic acid methyl ester]"

# Same assay, conditions: at 100 nM; 100% indicates no inhibition, zero or below zero indicates complete inhibition; Biological Test Example C; read-out: Average % control inhibition at 100 nM
row,remaining activity at 0.1 µM [%],Compound
1,60,"C[C@@H](c1ccc(-c2nnc(C(F)(F)F)s2)cc1)N1CC[C@](CC(C)(C)O)(c2ccccc2)OC1=O [Example C2, (S)-6-(2-Hydroxy-2-methyl-propyl)-6-phenyl-3-{(S)-1-[4-(5-trifluoromethyl-[1,3,4]thiadiazol-2-yl)-phenyl]-ethyl}-[1,3]oxazinan-2-one]"
2,30,"C[C@@H](c1ccc(C2CCOC2)cc1)N1CC[C@](CC(C)(C)O)(c2ccccc2)OC1=O (stereo partly drawn) [Example C4, (S)-6-(2-Hydroxy-2-methyl-propyl)-6-phenyl-3-{(S)-1-[4-(tetrahydro-furan-3-yl)-phenyl]-ethyl}-[1,3]oxazinan-2-one]"

# Same assay, conditions: at 100 nM; 100% indicates no inhibition, zero or below zero indicates complete inhibition; Biological Test Example D; read-out: Average % control inhibition at 100 nM
row,remaining activity at 0.1 µM [%],Compound
1,-12,"C[C@@H](c1ccc(-c2ccc(OCCO)cc2)cc1)N1CC[C@](CC(C)(C)O)(c2ccccc2)OC1=O [Example D6, 3-{(S)-1-[4′-(2-Hydroxy-ethoxy)-biphenyl-4-yl]-ethyl}-(S)-6-(2-hydroxy-2-methyl-propyl)-6-phenyl-[1,3]oxazinan-2-one]"
2,3,"C[C@@H](c1ccc(-c2ccc(OCC(C)(C)O)cc2)cc1)N1CC[C@](CC(C)(C)O)(c2ccccc2)OC1=O [Example D7, 3-{(S)-1-[4′-(2-Hydroxy-2-methyl-propoxy)-biphenyl-4-yl]-ethyl}-(S)-6-(2-hydroxy-2-methyl-propyl)-6-phenyl-[1,3]oxazinan-2-one]"

# Same assay, conditions: at 100 nM; 100% indicates no inhibition, zero or below zero indicates complete inhibition; Biological Test Example E
row,Average % control inhibition at 100 nM [%],Compound
1,25,"(S)-6-(2-Hydroxy-2-methyl-propyl)-6-phenyl-3-((S)-1-{4-[2-(alkoxy)-pyridin-4-yl]-phenyl}-ethyl)-[1,3]oxazinan-2-one [Example E1]"

# Same assay, conditions: read-out: Average % control inhibition at 100 nM
row,remaining activity at 0.1 µM [%],Compound
1,2,"Cc1nnc(-c2ccc([C@H](C)N3CC[C@](CC(C)C)(c4ccccc4)OC3=O)cc2)o1 (stereo in doubt) [Example 1, (S)-6-Isobutyl-3-{1-[4-(5-methyl-[1,3,4]oxadiazol-2-yl)-phenyl]-ethyl}-6-phenyl-[1,3]oxazinan-2-one]"
2,95,"Cc1nnc(-c2ccc([C@H](C)N3CC[C@](CC(C)(C)O)(c4ccccc4)OC3=O)cc2)n1C [Example 2, 3-{(S)-1-[4-(4,5-Dimethyl-4H-[1,2,4]triazol-3-yl)-phenyl]-ethyl}-(S)-6-(2-hydroxy-2-methyl-propyl)-6-phenyl-[1,3]oxazinan-2-one]"
3,38,"Cc1nnc(-c2ccc([C@H](C)N3CC[C@](CC(C)(C)O)(c4ccccc4)OC3=O)cc2)o1 [Example 3, (S)-6-(2-hydroxy-2-methyl-propyl)-3-{(S)-1-[4-(5-methyl-[1,3,4]oxadiazol-2-yl)-phenyl]-ethyl}-6-phenyl-[1,3]oxazinan-2-one]"
4,48,"C[C@@H](c1ccc(-c2nnco2)cc1)N1CC[C@](CC(C)(C)O)(c2ccccc2)OC1=O [Example 5, (S)-6-(2-Hydroxy-2-methyl-propyl)-3-[(S)-1-(4-[1,3,4]oxadiazol-2-yl-phenyl)-ethyl]-6-phenyl-[1,3]oxazinan-2-one]"
5,40,"Cc1nc(-c2ccc([C@H](C)N3CC[C@](CC(C)(C)O)(c4ccccc4)OC3=O)cc2)no1 [Example 6, (S)-6-(2-Hydroxy-2-methyl-propyl)-3-{(S)-1-[4-(5-methyl-[1,2,4]oxadiazol-3-yl)-phenyl]-ethyl}-6-phenyl-[1,3]oxazinan-2-one]"
6,50,"C[C@@H](c1ccc(-c2ncon2)cc1)N1CC[C@](CC(C)(C)O)(c2ccccc2)OC1=O [Example 7, (S)-6-(2-Hydroxy-2-methyl-propyl)-3-[(S)-1-(4-[1,2,4]oxadiazol-3-yl-phenyl)-ethyl]-6-phenyl-[1,3]oxazinan-2-one]"
7,92,"C[C@@H](c1ccc(C(N)=O)cc1)N1CC[C@](CC(C)(C)O)(c2ccccc2)OC1=O [Example 8, 4-{(S)-1-[(S)-6-(2-Hydroxy-2-methyl-propyl)-2-oxo-6-phenyl-[1,3]oxazinan-3-yl]-ethyl}-benzamide]"
8,20,"Cc1noc(C)c1-c1ccc([C@H](C)N2CC[C@](CC(C)(C)O)(c3ccccc3)OC2=O)cc1 [Example 10, 3-{(S)-1-[4-(3,5-Dimethyl-isoxazol-4-yl)-phenyl]-ethyl}-(S)-6-(2-hydroxy-2-methyl-propyl)-6-phenyl-[1,3]oxazinan-2-one]"
9,13,"C[C@@H](c1ccc(-c2ccsc2)cc1)N1CC[C@](CC(C)(C)O)(c2ccccc2)OC1=O [Example 11, (S)-6-(2-Hydroxy-2-methyl-propyl)-6-phenyl-3-[(S)-1-(4-thiophen-3-yl-phenyl)-ethyl]-[1,3]oxazinan-2-one]"
10,98,"C[C@@H](c1ccc(-c2nc3c(=O)n(C)c(=O)n(C)c3n2C)cc1)N1CC[C@](CC(C)(C)O)(c2ccccc2)OC1=O [Example 12, 8-(4-{(S)-1-[(S)-6-(2-Hydroxy-2-methyl-propyl)-2-oxo-6-phenyl-[1,3]oxazinan-3-yl]-ethyl}-phenyl)-1,3,9-trimethyl-3,9-dihydro-purine-2,6-dione]"
11,-2,"C[C@@H](c1ccc(-c2ccco2)cc1)N1CC[C@](CC(C)(C)O)(c2ccccc2)OC1=O [Example 13, 3-[(S)-1-(4-Furan-2-yl-phenyl)-ethyl]-(S)-6-(2-hydroxy-2-methyl-propyl)-6-phenyl-[1,3]oxazinan-2-one]"
12,10,"C[C@@H](c1ccc(-c2ccoc2)cc1)N1CC[C@](CC(C)(C)O)(c2ccccc2)OC1=O [Example 20, 3-[(S)-1-(4-Furan-3-yl-phenyl)-ethyl]-(S)-6-(2-hydroxy-2-methyl-propyl)-6-phenyl-[1,3]oxazinan-2-one]"
